Test system: M. riyadhense isolates
Test: antimicrobial susceptibility testing of clinical isolates
Format: cell-based, Mycobacterium riyadhense
Settings: eight clinical M. riyadhense isolates; share of isolates susceptible

Compound | susceptibility of isolates [%]
CC[C@@H](CO)NCCN[C@@H](CC)CO [ethambutol] | 100
NCC[C@H](O)C(=O)N[C@@H]1C[C@H](N)[C@@H](O[C@H]2O[C@H](CN)[C@@H](O)[C@H](O)[C@H]2O)[C@H](O)[C@H]1O[C@H]1O[C@H](CO)[C@@H](O)[C@H](N)[C@H]1O [amikacin] | 100
CC(=O)NC[C@H]1CN(c2ccc(N3CCOCC3)c(F)c2)C(=O)O1 [linezolid] | 100
CO[C@H]1/C=C/O[C@@]2(C)Oc3c(C)c(O)c4c(c3C2=O)C2=NC3(CCN(CC(C)C)CC3)NC2=C(NC(=O)/C(C)=C\C=C\[C@H](C)[C@H](O)[C@@H](C)[C@@H](O)[C@@H](C)[C@H](OC(C)=O)[C@@H]1C)C4=O [rifabutin] | 100
trimethoprim-sulfamethoxazole | 100
CC[C@H]1OC(=O)[C@H](C)[C@@H](O[C@H]2C[C@@](C)(OC)[C@@H](O)[C@H](C)O2)[C@H](C)[C@@H](O[C@@H]2O[C@H](C)C[C@H](N(C)C)[C@H]2O)[C@](C)(OC)C[C@@H](C)C(=O)[C@H](C)[C@@H](O)[C@]1(C)O [clarithromycin] | 100
COc1c(N2C[C@@H]3CCCN[C@@H]3C2)c(F)cc2c(=O)c(C(=O)O)cn(C3CC3)c12 [moxifloxacin] | 100
CO[C@H]1/C=C/O[C@@]2(C)Oc3c(C)c(O)c4c(O)c(c(/C=N/N5CCN(C)CC5)c(O)c4c3C2=O)NC(=O)/C(C)=C\C=C\[C@H](C)[C@H](O)[C@@H](C)[C@@H](O)[C@@H](C)[C@H](OC(C)=O)[C@@H]1C [rifampin] | 100

Source: patent US11781191B2, “Compositions and method for detecting Mycobacterium riyadhense” (King Abdullah University of Science and Technology, priority 2019, dated 2023)
